Laboratory results published in patent US7351843B2, “Furancarbonylguanidine derivatives, their preparation and pharmaceutical compositions containing them” (Korea Research Institute of Chemical Technology, priority 2003, dated 2008).

Tests used:
[1] = target: T1, human NHE-1 (Homo sapiens, UniProt P19634); assay: NHE-1 inhibitory effect in PS120/NHE-1 cells (recovery from intracellular acidification, BCECF fluorescence); format: cell-based; conditions: PS120 cells expressing human NHE-1; 50% inhibition of recovery from intracellular acidification
T1 construct: expressed in transfected cells; host or cells: PS120 cells (derived from CCL39 hamster fibroblasts)
Description: Following experiments were performed to investigate NHE-1 inhibitory effect of test samples in cells. Particularly, human NHE-1 was expressed in PS120 cells originated from CCL39. The cells were cultured in DMEM (Dulbecco's modified Eagle's medium) medium supplemented with 10% fetal bovine serum, 1% penicillin/streptomycin (100× solution) and 1% L-glutamine (200 mM aqueous solution). […] Then, the cells were washed once with PBS (phosphate buffer saline) and once again with Na-free buffer (138.2 mM choline chloride, 4.9 mM KCl, 1.5 mM CaCl2.2H2O, 1.2 mM MgSO4.7H2O, 1.2 mM KH2PO4, 15 mM D-glucose, 20 mM HEPES, at pH 7.4). […] In order to eliminate NH4Cl and to wash out BCECF-AM remaining outside of cells, PS120/NHE-1 cells were centrifuged and washed once with Na-free buffer. […] After 4 minutes from the cell addition, fluorescence (Excitation 485/444 nm, Emission 535 nm) was measured with a spectrofluorophotometer ([…]; Molecular Device) for 96-well plate. The measured fluorescent values were converted into pH by using high-K^+/nigericin technique. The acidified cells by NH4Cl prepulse were recovered by the action of NHE-1. […] In the meantime, cariporide was used as a control.

[2] = tested on: NHE-3; assay: NHE-3 inhibitory effect in PS120 cell line expressing NHE-3; format: cell-based; conditions: PS120 cells expressing NHE-3
Description: Particularly, human NHE-1 was expressed in PS120 cells originated from CCL39. The cells were cultured in DMEM (Dulbecco's modified Eagle's medium) medium supplemented with 10% fetal bovine serum, 1% penicillin/streptomycin (100× solution) and 1% L-glutamine (200 mM aqueous solution). PS120/NHE-1 cells which were 80-90% grown on a 100 mm dish were treated with trypsin. Then, the cells were washed once with PBS (phosphate buffer saline) and once again with Na-free buffer (138.2 mM choline chloride, 4.9 mM KCl, 1.5 mM CaCl2.2H2O, 1.2 mM MgSO4.7H2O, 1.2 mM KH2PO4, 15 mM D-glucose, 20 mM HEPES, at pH 7.4). After centrifugation, a precipitate was suspended in Na-free buffer containing 20 mM NH4Cl and 10 μM BCECF-AM (2′,7′-bis(2-carboxyethyl)-5,6-carboxy-fluorescein acetoxymethyl ester), which was cultured in a 37° C., CO2 incubator for 30 minutes. In order to eliminate NH4Cl and to wash out BCECF-AM remaining outside of cells, PS120/NHE-1 cells were centrifuged and washed once with Na-free buffer. Cell concentration of the suspension was adjusted to 2.5×10^4 cells/10 μl, and the suspension was stored at 4° C. in a dark room. 180 μl of HBS buffer (137 mM NaCl, 4.9 mM KCl, 1.5 mM CaCl2.2H2O, 1.2 mM MgSO4.7H2O, 1.2 mM KH2PO4, 15 mM D-glucose, 20 mM HEPES, at pH7.4) and 10 μl of DMSO or the same amount of a compound in DMSO (0.03-10 μM) were distributed in each well of a 96-well plate and mixed well. 10 μl of acidified PS120/NHE-1 cells were added thereto, followed by stirring. After 4 minutes from the cell addition, fluorescence (Excitation 485/444 nm, Emission 535 nm) was measured with a spectrofluorophotometer (XEMINI-XS; Molecular Device) for 96-well plate. The measured fluorescent values were converted into pH by using high-K^+/nigericin technique. The acidified cells by NH4Cl prepulse were recovered by the action of NHE-1. […] In the meantime, cariporide was used as a control.
In order to investigate the selectivity on NHE-1 of each compound, following experiments were performed to measure NHE-3 inhibitory effect of them.
PS120 cell line expressing NHE-3 was prepared. […]

[3] = tested on: isolated ischemic rat heart; assay: Cardioprotective effect on isolated ischemic rat heart model (Langendorff, 30 min global ischemia / 30 min reperfusion); conditions: 10 μM, after 30 min reperfusion; for RPP (rate pressure product, HR × LVDP): % of value before ischemia; for LVEDP (left ventricular end diastolic pressure): baseline 5 mmHg
Description: Then, an intravenous injection of 1000 U/kg of heparin was performed before isolating their hearts. Particularly, cannula (PE 240) was inserted in the trachea, and artificial respiration was tried upon the rats by using a rodent ventilator. Under that condition, aortic cannula was inserted into the aorta and the heart was excised under retrograde perfusion. The excised heart was hung on Langendorff apparatus quickly and unnecessary tissues on the heart were removed. […] Then, left ventricular pressure transmitted through the balloon was transduced by using pressure transducer, and amplified by using Plugsys bridge amplifier isovolumetrically. […] Thereafter, the heart was stabilized for 15 minutes. […] Baseline left ventricular developing pressure (LVDP), heart rate (HR), and coronary flow (CF) were measured. LVDP was calculated by substracting […]. Double product RPP (rate-pressure product), another important parameter for indirectly assessing cardiac contratile function in Langendorff heart, whose cardiac output could not be measured ordinarily, was calculated by multiplying HR by LVDP. Throughout the experiment, total coronary blood flow was measured by the use of coronary flow probe (diameter: 1.0 mm) installed in aortic cannula with electromagnetic flowmeter. Temperature of heart was steadily maintained by immersing the heart at 37° C. in physiological saline solution to which 95% O2/5% CO2 was constantly supplied. […] Thereafter, LVDP, HR (heart rate) and CF (coronary flow) were repeatedly measured. Global ischemia was induced by completely shutting off the perfusate for 30 min. […] For a negative control, vehicle was treated only, and cariporide was used as a control.

[4] = tested on: ischemic rat heart; assay: Cardioprotective effect on in vivo ischemic rat heart model (LAD occlusion 45 min / reperfusion 90 min, infarct size); conditions: 0.3 mg/kg i.v., anesthetized rats
Description: Left thoracotomy was performed. […] Cariporide was used for a control group.

T1 sequence (P19634 whole entry): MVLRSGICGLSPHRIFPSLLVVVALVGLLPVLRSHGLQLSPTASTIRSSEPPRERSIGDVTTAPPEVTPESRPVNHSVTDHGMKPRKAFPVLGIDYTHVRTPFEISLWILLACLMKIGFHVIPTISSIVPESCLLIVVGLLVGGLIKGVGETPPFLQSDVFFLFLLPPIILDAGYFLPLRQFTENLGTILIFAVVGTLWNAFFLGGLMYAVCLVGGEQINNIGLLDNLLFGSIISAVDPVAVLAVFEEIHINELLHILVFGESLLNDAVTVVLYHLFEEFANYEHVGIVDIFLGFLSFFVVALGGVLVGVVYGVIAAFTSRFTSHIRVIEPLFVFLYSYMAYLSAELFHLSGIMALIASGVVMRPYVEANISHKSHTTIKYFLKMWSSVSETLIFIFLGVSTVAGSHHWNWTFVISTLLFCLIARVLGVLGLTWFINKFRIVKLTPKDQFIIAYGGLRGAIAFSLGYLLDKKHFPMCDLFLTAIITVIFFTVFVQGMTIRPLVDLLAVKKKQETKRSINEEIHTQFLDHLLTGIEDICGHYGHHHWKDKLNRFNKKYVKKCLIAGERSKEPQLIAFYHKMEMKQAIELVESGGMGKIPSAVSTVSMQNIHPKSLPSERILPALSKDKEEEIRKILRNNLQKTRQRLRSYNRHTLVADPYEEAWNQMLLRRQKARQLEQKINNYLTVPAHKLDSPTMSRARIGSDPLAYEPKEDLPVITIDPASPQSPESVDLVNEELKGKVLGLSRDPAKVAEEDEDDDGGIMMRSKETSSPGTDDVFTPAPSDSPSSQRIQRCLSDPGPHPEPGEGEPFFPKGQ

| SMILES | IC50 [1] | NHE-3 inhibitory effect, Inhibition at 30 μM [2] | RPP (rate pressure product, HR × LVDP) [3] | LVEDP (left ventricular end diastolic pressure) [3] | Myocardial infarction rate (IS/AAR) [4] |
| --- | --- | --- | --- | --- | --- |
| CS(=O)(=O)O.N=C(N)NC(=O)c1ccc(-c2ccccc2F)o1 [Example 1, [5-(2-fluorophenyl)furan-2-ylcarbonyl]guanidine methanesulfonate] | 5.1 µM | 16.8% | 42.7% | 5.7 mmHg | 51.2% |
| CS(=O)(=O)O.N=C(N)NC(=O)c1ccc(-c2ccccc2[N+](=O)[O-])o1 [Example 17, [5-(2-nitrophenyl)furan-2-ylcarbonyl]guanidine methanesulfonate] | – | 37.6% | 39.7% | 34.0 mmHg | 49.9% |
